Data: publication PMC6631369 (Anti-cancer drugs, 2018)

Key:
[1] = cited from earlier work
[2] = tested on: UGT1A1; design: species or system patients; settings: UGT1A1*28 and *60; population model ref 24
[3] = no reference given; cited from earlier work

SMILES	half-life [1]	model-predicted clearance versus number of variant copies of UGT1A1 [2]	dose excreted unchanged renally [3] [%]
O=C(/C=C/c1cccc(S(=O)(=O)Nc2ccccc2)c1)NO [belinostat]	~ 1 h	decreasing trend with the number of variant copies of UGT1A1	–
COc1cc([C@@H]2c3cc4c(cc3[C@@H](O[C@@H]3O[C@@H]5CO[C@@H](C)O[C@H]5[C@H](O)[C@H]3O)[C@H]3COC(=O)[C@H]23)OCO4)cc(OC)c1O [etoposide]	–	–	56
